Laboratory results: PubChem BioAssay AID1918940 (Molecular Pharmacology Branch, DTP, NCI, 2023)

Tested on: NCI-H211 complex spheroid viability
Assay: Anticancer human tumor NCI-H211 cell line growth inhibition [LSD1];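 also: luminescent viability read after seven days of drug exposure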;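 as to viability, T/C: 100% = DMSO vehicle control viability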
Conditions: for IC50: curve of first compound; for viability, T/C: stronger effect = lower value
How it was run: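 Drug combinations with the LSD1 inhibitor iadademstat tested on tumor cells co-cultured as spheroids with endothelial cells and mesenchymal stem cells. Concentrations descended in half-log increments from clinical Cmax or 10 microM.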

[1] = second compound 0.1 µM, first compound 0.00316 µM
[2] = second compound 0.1 µM, first compound 0.01 µM
[3] = second compound 0.1 µM, first compound 0.0316 µM
[4] = second compound 0.1 µM, first compound 0.1 µM
[5] = second compound 0.1 µM, first compound 0.316 µM
[6] = second compound 0.1 µM, first compound 1 µM
[7] = second compound 0.316 µM, first compound 0.00316 µM
[8] = second compound 0.316 µM, first compound 0.01 µM
[9] = second compound 0.316 µM, first compound 0.0316 µM
[10] = second compound 0.316 µM, first compound 0.1 µM
[11] = second compound 0.316 µM, first compound 0.316 µM
[12] = second compound 0.316 µM, first compound 1 µM
[13] = second compound 1 µM, first compound 0.00316 µM
[14] = second compound 1 µM, first compound 0.01 µM
[15] = second compound 1 µM, first compound 0.0316 µM
[16] = second compound 1 µM, first compound 0.1 µM
[17] = second compound 1 µM, first compound 0.316 µM
[18] = second compound 1 µM, first compound 1 µM
[19] = second compound 3.16 µM, first compound 0.00316 µM
[20] = second compound 3.16 µM, first compound 0.01 µM
[21] = second compound 3.16 µM, first compound 0.0316 µM
[22] = second compound 3.16 µM, first compound 0.1 µM
[23] = second compound 3.16 µM, first compound 0.316 µM
[24] = second compound 3.16 µM, first compound 1 µM
[25] = second compound 10 µM, first compound 0.00316 µM
[26] = second compound 10 µM, first compound 0.01 µM
[27] = second compound 10 µM, first compound 0.0316 µM
[28] = second compound 10 µM, first compound 0.1 µM
[29] = second compound 10 µM, first compound 0.316 µM
[30] = second compound 10 µM, first compound 1 µM

Structure (SMILES)	IC50 (second compound 0.1 µM) [nM]	IC50 (second compound 0.316 µM) [nM]	IC50 (second compound 1 µM) [nM]	IC50 (second compound 3.16 µM) [nM]	IC50 (second compound 10 µM) [nM]	viability, T/C [1] [%]	viability, T/C [2] [%]	viability, T/C [3] [%]	viability, T/C [4] [%]	viability, T/C [5] [%]	viability, T/C [6] [%]	viability, T/C [7] [%]	viability, T/C [8] [%]	viability, T/C [9] [%]	viability, T/C [10] [%]	viability, T/C [11] [%]	viability, T/C [12] [%]	viability, T/C [13] [%]	viability, T/C [14] [%]	viability, T/C [15] [%]	other results
CC1COCCN1c1cc(-c2ccnn2C)c2ccnc(-c3ccn[nH]3)c2n1 (stereo not given) + NC1CC1c1ccc(-c2cccc(O)c2)cc1	3.78	3.51	< 3.16	< 3.16	< 3.16	56.3	16.8	6.31	4.68	3.56	3.19	53.6	14	6.09	4.56	4.43	4.27	47.7	16.8	6.6	viability, T/C [16]: 4.61%; viability, T/C [17]: 7.13%; viability, T/C [18]: 4.1%; viability, T/C [19]: 43.6%; viability, T/C [20]: 14.1%; viability, T/C [21]: 6.53%; viability, T/C [22]: 4.92%; viability, T/C [23]: 4.52%; viability, T/C [24]: 4.59%; viability, T/C [25]: 34.5%; viability, T/C [26]: 14.5%; viability, T/C [27]: 7.33%; viability, T/C [28]: 4.8%; viability, T/C [29]: 4.76%; viability, T/C [30]: 6.03%
O=C(C=Cn1cnc(-c2cc(C(F)(F)F)cc(C(F)(F)F)c2)n1)NNc1cnccn1 + NC1CC1c1ccc(-c2cccc(O)c2)cc1	< 3.16	< 3.16	< 3.16	< 3.16	< 3.16	45.6	35.5	16.3	6.54	2.54	2.3	29.8	29	14.4	6.98	2.61	2.22	38.4	32.6	12.8	viability, T/C [16]: 6.89%; viability, T/C [17]: 3.1%; viability, T/C [18]: 2.61%; viability, T/C [19]: 47.7%; viability, T/C [20]: 29.5%; viability, T/C [21]: 16.6%; viability, T/C [22]: 7.35%; viability, T/C [23]: 3.74%; viability, T/C [24]: 2.99%; viability, T/C [25]: 40.6%; viability, T/C [26]: 28.6%; viability, T/C [27]: 17.8%; viability, T/C [28]: 9.12%; viability, T/C [29]: 3.24%; viability, T/C [30]: 3.79%
